Experimental data taken from the NIST ThermoML archive (doi:10.1021/je700186v).
± gives the expanded uncertainty stated by the source.

Details: Crystal; visual observation

## C1CN2CCN1CC2 [1,4-diazabicyclo[2.2.2]octane]
  Normal melting temperature: 159.30 ± 1.1 °C
